This note sets out measurements from ChEMBL document CHEMBL5321280, “Novel 4-Arylindolines Containing a Pyrido[3,2-d]pyrimidine Moiety as the Programmed Cell Death-1/Programmed Cell Death-Ligand 1 Interaction Inhibitors for Tumor Immunotherapy” (J Med Chem, 2023).

Data set [1] has as its target Programmed cell death protein 1/Programmed cell death 1 ligand 1 (Homo sapiens, UniProt Q15116+Q9NZQ7). The data set can be described thus: Inhibition of PD-1/PD-L1 (unknown origin) protein-protein interaction incubated for 105 mins by HTRF assay. Format: protein-complex assay. For orientation: In TR-FRET formats the signal depends on donor and acceptor labels being close together.

Data set [2] in a line: Metabolic stability in human liver microsomes assessed as half life. Format: ADME, Microsome. A general note: Microsomes from liver hold many membrane-bound enzymes, among them those of drug oxidation.
Data set [3] has as its system T-cell. The data set can be described thus: Immunomodulatory activity in concanavalin A stimulated BALB/c mouse T-lymphocyte co-cultured with mouse CT26 cells assessed as T cell proliferation at 20 nM incubated for 48 hrs by flow cytometry (reference value: 64.08 +/- 0.91%). Format: functional. Background: In flow cytometry, cells or beads pass a laser one at a time.

Data set [4] relates to T-cell. The experiment in a line: Immunomodulatory activity in concanavalin A stimulated BALB/c mouse T-lymphocyte co-cultured with mouse CT26 cells overexpressing PD-L1 assessed as T cell proliferation at 20 nM incubated for 48 hrs by flow cytometry (reference value: 58.47 +/- 2.07%). The data set is classed as functional.
The subject of data set [5] is T-cell. The experiment in a line: Immunomodulatory activity in concanavalin A stimulated BALB/c mouse T-lymphocyte co-cultured with mouse CT26 cells assessed as increase in T cell proliferation at 5 to 80 nM incubated for 48 hrs by flow cytometry. The data set is classed as functional, cell-based. As to conditions: dose 5-80 nM.
In data set [6] the test system is T-cell. The data set can be described thus: Immunomodulatory activity in concanavalin A stimulated BALB/c mouse T-lymphocyte co-cultured with mouse CT26 cells overexpressing PD-L1 assessed as increase in T cell proliferation at 5 to 80 nM incubated for 48 hrs by flow cytometry. Format: functional, cell-based. The note with it: dose 5-80 nM.
For data set [7], the system named is T-cell. The data set can be described thus: Immunomodulatory activity in concanavalin A stimulated BALB/c mouse T-lymphocyte co-cultured with mouse CT26 cells overexpressing PD-L1 assessed as increase in proportion of CD3 positive CD8 positive T cells at 20 nM incubated for 48 hrs by flow cytometry (reference value: 15.01%). Format: functional.
The test system of data set [8] is T-cell. The experiment in a line: Immunomodulatory activity in concanavalin A stimulated BALB/c mouse T-lymphocyte co-cultured with mouse CT26 cells overexpressing PD-L1 assessed as increase in proportion of CD3 positive CD8 positive T cells at 80 nM incubated for 48 hrs by flow cytometry (reference value: 14.38%). The data set is classed as functional.
The test system of data set [9] is T-cell. The experiment in a line: Immunomodulatory activity in concanavalin A stimulated BALB/c mouse T-lymphocyte co-cultured with mouse CT26 cells overexpressing PD-L1 assessed as increase in proportion of CD3 positive CD69 positive T cells at 20 nM incubated for 48 hrs by flow cytometry (reference value: 39.97%). Format: functional.
In data set [10] the test system is T-cell. The data set can be described thus: Immunomodulatory activity in concanavalin A stimulated BALB/c mouse T-lymphocyte co-cultured with mouse CT26 cells overexpressing PD-L1 assessed as increase in proportion of CD3 positive CD69 positive T cells at 80 nM incubated for 48 hrs by flow cytometry (reference value: 41.22%). Format: functional.

Calls of active or inactive are those of the source. The calls are words filed in the database; no cut-off is given here.

In general, IC50 refers to the concentration that gives 50% inhibition. A low value points to greater potency in that assay. Broadly, the half-life is the time in which the quantity being followed falls by half.

Programmed cell death protein 1/Programmed cell death 1 ligand 1, sequence (Q15116 whole entry): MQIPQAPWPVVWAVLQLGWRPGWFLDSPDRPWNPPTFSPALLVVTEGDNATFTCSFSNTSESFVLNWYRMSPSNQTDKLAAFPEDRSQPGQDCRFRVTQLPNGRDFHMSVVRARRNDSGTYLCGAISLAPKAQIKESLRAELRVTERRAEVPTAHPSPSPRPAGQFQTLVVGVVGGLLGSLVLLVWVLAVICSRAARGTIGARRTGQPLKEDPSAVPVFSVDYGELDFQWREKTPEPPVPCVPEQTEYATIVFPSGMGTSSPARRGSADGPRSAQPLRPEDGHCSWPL
Programmed cell death protein 1/Programmed cell death 1 ligand 1, sequence (Q9NZQ7 whole entry): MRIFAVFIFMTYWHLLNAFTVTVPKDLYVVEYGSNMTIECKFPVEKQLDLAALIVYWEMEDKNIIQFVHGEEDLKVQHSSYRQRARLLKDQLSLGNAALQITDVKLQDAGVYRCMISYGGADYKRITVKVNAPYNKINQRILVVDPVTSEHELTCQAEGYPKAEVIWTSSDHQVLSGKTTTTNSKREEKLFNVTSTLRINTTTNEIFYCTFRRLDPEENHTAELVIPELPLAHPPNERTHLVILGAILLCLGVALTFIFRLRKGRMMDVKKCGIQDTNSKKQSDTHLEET

In turn, `OCCNCc1cnc2c(N3CCc4c(-c5ccccc5)cccc43)ncnc2c1` had a concentration for half-maximal inhibition (IC50) in data set [1] of 0.0068 µM. Besides, the half-life in data set [2] came out at 3.47 h. Moreover, the Activity with T-cell [3] stood at 59.22%; in the data set with T-cell [4] it was 60.06%. In addition, the outcome in the data set on T-cell [5] and in the data set with T-cell [6] was Active.

`O=C(O)[C@@H]1CCCCN1Cc1cnc2c(N3CCc4c(-c5ccccc5)cccc43)ncnc2c1` showed an IC50 in data set [1] of 0.0266 µM.

In data set [1], `NS(=O)(=O)NCCNCc1cnc2c(N3CCc4c(-c5ccccc5)cccc43)ncnc2c1` gave a half-maximal inhibitory concentration (IC50) of 0.0211 µM.

Regarding `O=C(O)[C@H]1CCN(Cc2cnc3c(N4CCc5c(-c6ccccc6)cccc54)nccc3c2)C1`, the IC50 in [1] came to 0.0805 µM.

In [1], `O[C@@H]1CCN(Cc2cnc3c(N4CCc5c(-c6ccccc6)cccc54)ncnc3c2)C1` had an IC50 of 0.0132 µM.

As for `CC(=O)NCCNCc1cnc2c(N3CCc4c(-c5ccccc5)cccc43)ncnc2c1`, the 50% inhibitory concentration (IC50) in data set [1] worked out at 0.0039 µM. Besides, the half-life in data set [2] is 1.85 h. Also, the Activity was 51.57% with T-cell [3]; 55.7% with T-cell [4]; 18.56% in the data set with T-cell [7]; 22.16% in the data set on T-cell [8]; 43.99% in the data set on T-cell [9]; 45.07% in the data set with T-cell [10]. The outcome with T-cell [5] and in the data set on T-cell [6] was Active.

In data set [1], `O=C(O)[C@H]1CCCN1Cc1cnc2c(N3CCc4c(-c5ccccc5)cccc43)ncnc2c1` displayed an IC50 of 0.0227 µM.

In data set [1], `NS(=O)(=O)NCCNCc1cnc2c(N3CCc4c(-c5ccc6c(c5)OCCO6)cccc43)ncnc2c1` yielded an IC50 of 0.0315 µM.

Take `COCCNCc1cnc2c(N3CCc4c(-c5ccc6c(c5)OCCO6)cccc43)ncnc2c1`: in data set [1], the half-inhibitory concentration (IC50) was 0.0155 µM.

In data set [1], `O=C(O)[C@@H]1CCN(Cc2cnc3c(N4CCc5c(-c6ccccc6)cccc54)nccc3c2)C1` showed an IC50 of 0.0679 µM.

In the case of `c1ccc(-c2cccc3c2CCN3c2ncnc3cc(CNC4CCOCC4)ccc23)cc1`, the concentration for half-maximal inhibition (IC50) in data set [1] came out at 0.108 µM.

Compound `CC(=O)NCCNCc1ccc2c(N3CCc4c(-c5ccccc5)cccc43)ncnc2c1` came in with an IC50 in data set [1] of 0.126 µM.

Turning to `O=C(O)[C@@H]1CCCN1Cc1cnc2c(N3CCc4c(-c5ccc6c(c5)OCCO6)cccc43)ncnc2c1`, in data set [1], the 50% inhibitory concentration (IC50) came to 0.0158 µM.

Turning to `OCCNCc1ccc2c(N3CCc4c(-c5ccccc5)cccc43)ncnc2c1`, in data set [1], 0.0434 µM corresponded to half-maximal inhibition (IC50).

Compound `c1ccc(-c2cccc3c2CCN3c2ncnc3cc(CNC4CCOCC4)cnc23)cc1` returned an IC50 in data set [1] of 0.0212 µM. Further, the half-life in [2] was found to be 1.51 h.

In the case of `OCCNCc1cnc2c(N3CCc4c(-c5ccc6c(c5)OCCO6)cccc43)ncnc2c1`, the half-inhibitory concentration (IC50) in [1] came to 0.0072 µM. In addition, the Activity in the data set with T-cell [3] is given as 61.77%; in the data set on T-cell [4], 59.54%. The outcome with T-cell [5] and in the data set on T-cell [6] was Active.

`CC(C)(CO)NCc1cnc2c(N3CCc4c(-c5ccccc5)cccc43)nccc2c1` registered a 50% inhibitory concentration (IC50) in data set [1] of 0.0444 µM.

The compound `OC[C@@H]1CCN(Cc2cnc3c(N4CCc5c(-c6ccccc6)cccc54)ncnc3c2)C1` had an IC50 in data set [1] of 0.016 µM.

In turn, `COCCNCc1cnc2c(N3CCc4c(-c5ccccc5)cccc43)ncnc2c1` gave an IC50 in data set [1] of 0.0234 µM.

On to `CC(=O)NCCNCc1cnc2c(N3CCc4c(-c5ccc6c(c5)OCCO6)cccc43)ncnc2c1`, for which inhibition in data set [1] was half-maximal at 0.0138 µM (IC50).

In data set [1], `O=C(O)[C@H]1CCCCN1Cc1cnc2c(N3CCc4c(-c5ccccc5)cccc43)ncnc2c1` displayed an IC50 of 0.0621 µM.

Compound `c1ccc(-c2cccc3c2CCN3c2nccc3cc(CNC4CCOCC4)cnc23)cc1` registered an IC50 in [1] of 0.128 µM.

Regarding `O=C(O)[C@@H]1CCN(Cc2cnc3c(N4CCc5c(-c6ccccc6)cccc54)ncnc3c2)C1`, in data set [1], the half-maximal inhibitory concentration (IC50) turned out to be 0.0086 µM. Besides, the Activity is 43.98% in the data set on T-cell [3] and 38.74% in the data set on T-cell [4]. Also, the outcome in the data set on T-cell [5] and in the data set with T-cell [6] was Active.

Regarding `O=C(c1ncc(CNC2CCOCC2)s1)N1CCc2c(-c3ccc4c(c3)OCCO4)cccc21`, in [1], the concentration for half-maximal inhibition (IC50) came out at 0.0189 µM. The half-life in data set [2] was 0.373 h. In addition, the results for the Activity in the data set on T-cell [3] and in the data set with T-cell [4] were 59.1% and 60.49%, respectively. Also, the outcome in the data set with T-cell [5] and in the data set on T-cell [6] was Active.

Regarding `OC[C@H]1CCN(Cc2cnc3c(N4CCc5c(-c6ccccc6)cccc54)ncnc3c2)C1`, half-maximal inhibition in data set [1] (IC50) required 0.0214 µM.

For the compound `O=C(O)[C@@H]1CCCN1Cc1cnc2c(N3CCc4c(-c5ccccc5)cccc43)ncnc2c1`, half-maximal inhibition in data set [1] (IC50) was put at 0.0081 µM. In addition, the Activity came to 64.03% with T-cell [3] and 61.9% in the data set with T-cell [4]. Also, the result in the data set on T-cell [5] and in the data set on T-cell [6] was Active.

In data set [1], `CC(=O)NCCNCc1cnc2c(N3CCc4c(-c5ccccc5)cccc43)nccc2c1` gave a half-inhibitory concentration (IC50) of 0.0845 µM.

On to `OCCNCc1cnc2c(N3CCc4c(-c5ccccc5)cccc43)nccc2c1`, for which, in data set [1], the 50% inhibitory concentration (IC50) turned out to be 0.0317 µM.

`CC(C)(CO)NCc1cnc2c(N3CCc4c(-c5ccc6c(c5)OCCO6)cccc43)ncnc2c1` returned an IC50 in [1] of 0.0141 µM.

`O[C@H]1CCN(Cc2cnc3c(N4CCc5c(-c6ccccc6)cccc54)ncnc3c2)C1` yielded an IC50 in data set [1] of 0.0174 µM.

Compound `O=C(O)[C@H]1CCN(Cc2cnc3c(N4CCc5c(-c6ccccc6)cccc54)ncnc3c2)C1` came in with an IC50 in [1] of 0.0081 µM. For the same compound, the values for the Activity in the data set on T-cell [3] and with T-cell [4] were 54.44% and 52.78%, respectively. The result in the data set on T-cell [5] and in the data set with T-cell [6] was Active.
